Experimental data taken from patent US8815306B2, “Methods and compositions for promoting bone and joint health” (Metaproteomics, LLC, priority 2007, dated 2014).
Where a name gives a salt, the structure may show the parent alone. Read-outs that look alike come from different tables or passages of the source.

Key:
[1] = system: TNFα induced MMP-13 expression; assay: Synergy (Combinational Index) of THIAA and berberine on TNFα induced MMP-13 expression in SW1353; assay type: cell-based; conditions: Homo sapiens
Protocol: The SW1353 human chondrocyte cell line was used as described in Example 1.
The human chondrocyte cell line, SW1353 were maintained and treatments conditions were described in Example 1. […]; 1:10; 5:1; 2:1; 1:1; 1:2; 1:5; 1:10; […].
Determination of MMP-13 expression—The MMP-13 levels in the medium was measured as described in Example 1.
Median effect calculations were performed using CalcuSyn (Biosoft, Ferguson, Mo.). […] A minimum of three concentrations were used to determine the dose-response curve and a median inhibitory concentration (IC50).
Synergy—Combinational Index (CI) values were measured using CalcuSyn (Biosoft, Ferguson, Mo.). […]

[2] = system: TNFα induced MMP-13 expression; assay: TNFα induced MMP-13 expression in human chondrocyte cell line SW1353; conditions: for TNFa Stimulated % Activity average (MMP-13 expression): Table 6; for TNFa Stimulated % Activity average (MMP-13 expression) / activity at 20 µg/mL / TNFa Stimulated MMP-13 n = 1 / TNFa Stimulated MMP-13 average / activity at 1 µg/mL / activity at 5 µg/mL / activity at 10 µg/mL: TNF pos = 100%; for activity at 20 µg/mL / activity at 1 µg/mL / activity at 5 µg/mL / activity at 10 µg/mL: SW1353, 24 h; for Dose dependence of inhibition of TNFα induced MMP-13 expression: Example 2, 20, 10, 5 and 1 ug/ml
Protocol: The SW1353 human chondrocyte cell line was used as described below.
Cells were grown and subcultured in 96-well plates at a density of 8×10^4 cells per well and allowed to reach ˜80% confluence overnight. Test compounds in medium were added to the cells at a final concentration of 0.1% DMSO. Following one hour of incubation with the test compounds, TNFα (10 ng/ml) or medium alone was added to the cell wells and incubation continued for 24 hours. The supernatant media was subsequently collected for MMP-13 determination.
Determination of MMP-13: A commercial, non-radioactive procedure for quantification of MMP-13 was used according to the manufacturer's instructions using MMP-13 as a standard. A minimum of 3 wells were used for each test condition.
The amount of MMP-13 release into the medium was determined by comparison of the MMP-13 generated in the presence or absence of TNFα and test compounds. A minimum of three wells were used for each test condition. The basal MMP-without 13 levels without TNFα stimulation was subtracted from TNF stimulation to determine the TNFα induced MMP-13 expression in the medium and the levels normalized to 100%. The percent activity of test compounds was measured in the presence of TNFα and referred as TNFα induced MMP-13 expression.

[3] = system: sRANKL mediated TRAP activity (osteoclastogenesis), RAW 264.7; assay: sRANKL mediated osteoclastogenesis: TRAP activity in RAW 264.7 cells; conditions: for % TRAP activity average (sRANKL induced TRAP activity): RAW 264.7 cells, sRANKL alone normalized to 100%; for activity at 5 µg/mL / activity at 10 µg/mL: Mus musculus, RAW264.7, read-out: % TRAP Activity average; for % TRAP Activity average: Table 8, RAW 264.7, sRANKL 50 ng/ml, RANKL = 100%
Protocol: Following overnight incubation with the test compounds, sRANKL (50 ng/ml) or medium alone was added to the cell wells. The medium was replaced after 2 days with test compounds and sRANKL and incubation was continued for 3 additional days.
The cells were washed twice with ice cold PBS and lysed in 150 μl of 0.2% triton x-100 in PBS. TRAP activity in cell lysates was determined by using TRAP solution from the kit (Sigma 387A1 kit), according to the manufacturers instructions. A 100 μl cell lysates was added to 100 μl of TRAP solution in 96 well plate and incubated at 37° C. for 1 hr. The absorbance was measured at 555 nm using a plate reader. The protein concentration was estimated using BCA reagent (Sigma) and the final activity was normalized for equal protein.
Inhibition of TRAP activity was determined by comparison of the TRAP activity in the presence of with and with out test compounds in sRANKL, activated osteoclasts. A minimum of two wells were used for each concentration.
Inhibition of TRAP activity was determined by comparison in the presence of with and with out test compounds in sRANKL activated osteoclasts. A minimum of two wells were used for each concentration. The basal TRAP activity levels with out sRANKL stimulation was subtracted from sRANKL stimulation to get the sRANKL induced TRAP activity and the activity was normalized to 100%. The percent activity of test compounds was measured in the presence of sRANKL and referred as sRANKL induced TRAP activity.
A minimum of three concentrations were used to determine median inhibitory concentration (IC50).

[4] = Homo sapiens, read-out: TNFa Stimulated MMP-13 average, Table 4, 20 ug/mL, SW1353, TNFα 10 ng/ml 24 h
[5] = Table 4, 20 ug/mL, SW1353, TNFα 10 ng/ml 24 h
[6] = Homo sapiens, read-out: TNFa Stimulated MMP-13 average, Table 5, 1 ug/mL, SW1353
[7] = Homo sapiens, read-out: TNFa Stimulated MMP-13 average, Table 5, 5 ug/mL, SW1353
[8] = Homo sapiens, read-out: TNFa Stimulated MMP-13 average, Table 5, 10 ug/mL, SW1353
[9] = Homo sapiens, read-out: TNFa Stimulated MMP-13 average, Table 5, 20 ug/mL, SW1353

Compound | activity at 20 µg/mL [2, 4] | % TRAP activity average (sRANKL induced TRAP activity) ([3]; 1 ug/mL test compound) | % TRAP activity average (sRANKL induced TRAP activity) ([3]; 5 ug/mL test compound) | % TRAP activity average (sRANKL induced TRAP activity) ([3]; 10 ug/mL test compound) | activity at 5 µg/mL [3] | activity at 10 µg/mL [3] | TNFa Stimulated MMP-13 average [2, 5] | also measured
COc1ccc2cc3[n+](cc2c1OC)CCc1cc2c(cc1-3)OCO2 [Berberine sulfate] |  |  |  |  |  |  |  | IC50 ([1]; Table 7B, single agents, read-out: Dm (median effect dose, TNFα induced MMP-13 expression)): 0.254 µg/mL; IC50 ([1]; text b137, single agents, read-out: IC50 (TNFα induced MMP-13 expression)): 0.254 µg/mL; Dose dependence of modulation of TNFα induced MMP-13 expression ([2]; Example 3, SW1353): dose dependently modulated; IC50 ([2]; Homo sapiens, SW1353, read-out: IC50 (TNFa induced MMP-13 expression)): 0.15 µg/mL; TNFa Stimulated % Activity average (MMP-13 expression) ([2]; 0.05 ug/mL, SW1353): 99%; TNFa Stimulated % Activity average (MMP-13 expression) ([2]; 0.1 ug/mL, SW1353): 50%; TNFa Stimulated % Activity average (MMP-13 expression) ([2]; 0.5 ug/mL, SW1353): 4%; TNFa Stimulated % Activity average (MMP-13 expression) ([2]; 1 ug/mL, SW1353): −1%
COc1ccc2cc3[n+](cc2c1OC)CCc1cc2c(cc1-3)OCO2 [Berberine, 7,8,13,13a-tetrahydro-9,10-dimethoxy-2,3-(methylenedioxy)-berbinium] | -39% | 68% | 15% | 7% | 4% | -8% |  | TNFa Stimulated MMP-13 n = 1 ([2]; Table 5, 1 ug/mL, SW1353): −1%; TNFa Stimulated MMP-13 n = 1 ([2]; Table 5, 5 ug/mL, SW1353): −4%; TNFa Stimulated MMP-13 n = 1 ([2]; Table 5, 10 ug/mL, SW1353): −4%; TNFa Stimulated MMP-13 n = 1 ([2]; Table 5, 20 ug/mL, SW1353): −4%
CC/C=C\C/C=C\C/C=C\C/C=C\C/C=C\C/C=C\CCC(=O)O [DHA] |  |  |  |  |  |  | 265% | % TRAP Activity average ([3]; 5 ug/mL): 120%; % TRAP Activity average ([3]; 10 ug/mL): 105%
C[C@]12CC[C@H](O)CC1=CC[C@@H]1[C@@H]2CC[C@]2(C)C(=O)CC[C@@H]12 [DHEA, reference compound] |  |  |  |  |  |  | −2% | Dose dependence of inhibition of TNFα induced MMP-13 expression ([2]; SW1353): dose dependently (20, 10, and 1 ug/ml) inhibited; TNFa Stimulated MMP-13 average ([2]; Table 5, 1 ug/mL, SW1353): 111%; TNFa Stimulated MMP-13 average ([2]; Table 5, 5 ug/mL, SW1353): 108%; TNFa Stimulated MMP-13 average ([2]; Table 5, 10 ug/mL, SW1353): 64%; TNFa Stimulated MMP-13 average ([2]; Table 5, 20 ug/mL, SW1353): 5%; % TRAP Activity average ([3]; 5 ug/mL): 46%; % TRAP Activity average ([3]; 10 ug/mL): 33%
O=c1c(-c2ccc(O)cc2)coc2cc(O)cc(O)c12 [Genistein] | 27% |  |  |  | 91% | 72% |  | 
CC1(C)C=Cc2c(ccc3c2OC[C@@H](c2ccc(O)cc2O)C3)O1 [Glabridin] | 79% |  |  |  | 82% | 75% |  | 
N[C@H]1C(O)O[C@H](CO)[C@@H](O)[C@@H]1O (stereo partly shown) [Glucosamine] | 77% | 179% | 183% | 269% | 75% | 48% |  | TNFa Stimulated MMP-13 n = 1 ([2]; Table 5, 1 ug/mL, SW1353): 126%; TNFa Stimulated MMP-13 n = 1 ([2]; Table 5, 5 ug/mL, SW1353): 137%; TNFa Stimulated MMP-13 n = 1 ([2]; Table 5, 10 ug/mL, SW1353): 107%; TNFa Stimulated MMP-13 n = 1 ([2]; Table 5, 20 ug/mL, SW1353): 105%
COc1ccc([C@@H]2CC(=O)c3c(O)cc(O[C@@H]4O[C@H](CO[C@@H]5O[C@@H](C)[C@H](O)[C@@H](O)[C@H]5O)[C@@H](O)[C@H](O)[C@H]4O)cc3O2)cc1O [Hesperidin] |  |  |  |  |  |  | 13% | % TRAP Activity average ([3]; 5 ug/mL): 81%; % TRAP Activity average ([3]; 10 ug/mL): 76%
CC(C)Oc1ccc2c(=O)c(-c3ccccc3)coc2c1 [Ipriflavone, reference compound] | -42% | 168% | 164% | 82% |  |  |  | Dose dependence of inhibition of TNFα induced MMP-13 expression ([2]; SW1353): dose dependently (20, 10, and 1 ug/ml) inhibited; activity at 1 µg/mL [2, 6]: 86%; activity at 5 µg/mL [2, 7]: 20%; activity at 10 µg/mL [2, 8]: 0%; activity at 20 µg/mL [2, 9]: 3%
CCCCC/C=C\C/C=C\CCCCCCCC(=O)O [Linoleic Acid] | 23% |  |  |  |  |  |  | 
CC1(C)CC[C@]2(C(=O)O)CC[C@]3(C)C(=CC[C@@H]4[C@@]5(C)CC[C@H](O)C(C)(C)[C@@H]5CC[C@]43C)[C@@H]2C1 [Oleanolic Acid] |  | 139% | 63% | 32% | 61% | 35% |  | activity at 10 µg/mL ([2]; Homo sapiens, read-out: TNFa Stimulated MMP-13 average, Table 4, 10 ug/mL, SW1353, TNFα 10 ng/ml 24 h): 17%; TNFa Stimulated MMP-13 n = 1 ([2]; Table 5, 1 ug/mL, SW1353): 95%; TNFa Stimulated MMP-13 n = 1 ([2]; Table 5, 5 ug/mL, SW1353): 38%; TNFa Stimulated MMP-13 n = 1 ([2]; Table 5, 10 ug/mL, SW1353): 43%; TNFa Stimulated MMP-13 n = 1 ([2]; Table 5, 20 ug/mL, SW1353): 26%
C/C=C1/[C@H](O[C@@H]2O[C@H](CO)[C@@H](O)[C@H](O)[C@H]2O)OC=C(C(=O)OC)[C@H]1CC(=O)OCCc1ccc(O)c(O)c1 [Oleuropein] | -31% |  |  |  | 82% | 81% |  | 
O=C(CCc1ccc(O)cc1)c1c(O)cc(O)cc1O[C@@H]1O[C@H](CO)[C@@H](O)[C@H](O)[C@H]1O [Phloridzin] | 77% |  |  |  | 103% | 150% |  | 
O=C([O-])CC(O)(CC(=O)[O-])C(=O)[O-].[K+].[K+].[K+] [Potassium Citrate] |  |  |  |  |  |  | 95% | 
O=c1c(O)c(-c2ccc(O)c(O)c2)oc2cc(O)cc(O)c12 [Quercetin] | -65% |  |  |  | 73% | 62% |  | 
Oc1ccc(C=Cc2cc(O)cc(O)c2)cc1 [Resveratrol] | -42% | 117% | 17% | 16% | 11% | 2% |  | Dose dependence of inhibition of TNFα induced MMP-13 expression ([2]; SW1353): dose dependently (20, 10, and 1 ug/ml) inhibited; activity at 1 µg/mL [2, 6]: 96%; activity at 5 µg/mL [2, 7]: 88%; activity at 10 µg/mL [2, 8]: 53%; activity at 20 µg/mL [2, 9]: 45%
C[C@@H]1O[C@@H](OC[C@H]2O[C@@H](Oc3c(-c4ccc(O)c(O)c4)oc4cc(O)cc(O)c4c3=O)[C@H](O)[C@@H](O)[C@@H]2O)[C@H](O)[C@H](O)[C@H]1O [Rutin] | -7% |  |  |  | 106% | 74% |  | 
O=C1O[C@H]([C@@H](O)CO)C(O)=C1O [Vitamin C] | 370% |  |  |  |  |  |  | 
CC(C)=CCC/C(C)=C/CC/C(C)=C/CC/C(C)=C/CC1=C(C)C(=O)c2ccccc2C1=O [Vitamin K2] |  |  |  |  |  |  | 56% | 
Conjugated Linoleic acid |  | 86% | 81% | 79% |  |  |  | 
Hyaluronic Acid |  | 122% | 130% | 111% |  |  | 105% | % TRAP Activity average ([3]; 5 ug/mL): 35%; % TRAP Activity average ([3]; 10 ug/mL): 2%
Inulin |  |  |  |  |  |  | 33% | % TRAP Activity average ([3]; 5 ug/mL): 87%; % TRAP Activity average ([3]; 10 ug/mL): 69%
